Measurements reported in patent publication US20260347347A1, “2-AZA-AND 2-OXABICYCLO[2.1.1]HEXANE DERIVATIVES AS FACTOR XIIA ENZYME INHIBITORS” (KALVISTA PHARMACEUTICALS LIMITED, priority 2022, published 2026).

biological target: T1, Human Factor XIIa (Homo sapiens, UniProt P00748); assay: Determination of FXIIa inhibition (in vitro IC50 assay, fluorogenic substrate H-DPro-Phe-Arg-AFC); type: biochemical; details: human Factor XIIa; fluorogenic substrate H-DPro-Phe-Arg-AFC at Km concentration; 5 min, 25 °C; class symbols; read-out: Human FXIIa IC50
T1 construct: purchased Enzyme Research Laboratories
T1 sequence (P00748 373-615 limits assumed): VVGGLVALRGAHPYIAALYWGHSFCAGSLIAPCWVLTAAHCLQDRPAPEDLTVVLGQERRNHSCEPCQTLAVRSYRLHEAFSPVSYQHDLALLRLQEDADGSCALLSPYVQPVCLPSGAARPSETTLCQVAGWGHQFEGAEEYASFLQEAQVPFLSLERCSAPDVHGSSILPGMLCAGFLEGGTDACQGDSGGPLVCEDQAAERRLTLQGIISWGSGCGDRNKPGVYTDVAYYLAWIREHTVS
T1 sequence (P00748 20-372 partner limits assumed): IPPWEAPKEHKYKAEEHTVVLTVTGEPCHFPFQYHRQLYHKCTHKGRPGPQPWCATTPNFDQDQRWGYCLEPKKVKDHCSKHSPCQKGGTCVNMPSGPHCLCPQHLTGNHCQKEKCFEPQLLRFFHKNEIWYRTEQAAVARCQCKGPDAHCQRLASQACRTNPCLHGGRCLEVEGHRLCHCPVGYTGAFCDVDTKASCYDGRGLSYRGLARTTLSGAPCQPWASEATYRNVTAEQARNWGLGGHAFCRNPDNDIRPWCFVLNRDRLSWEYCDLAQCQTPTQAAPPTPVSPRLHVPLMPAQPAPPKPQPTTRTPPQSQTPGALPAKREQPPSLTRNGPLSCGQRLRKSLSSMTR
Description: In vitro inhibition of Factor XIIa was determined using an IC50 assay based on standard literature methods (see e.g Baeriswyl et al., ACS Chem. Biol., 2015, 10 (8) 1861; Bouckaert et al., European Journal of Medicinal Chemistry 110 (2016) 181). Human Factor XIIa (Enzyme Research Laboratories) was incubated at 25 °C with the fluorogenic substrate H-DPro-Phe-Arg-AFC (Peptide Protein Science) and various concentrations of the test compound. Protease activity was measured by monitoring the accumulation of liberated fluorescence from the substrate over 5 min at 25 °C. The linear rate of fluorescence increase per minute was expressed as percentage (%) activity. The Km for the cleavage of the substrate by FXIIa was determined by standard transformation of the Michaelis-Menten equation. The compound inhibitor assays were performed at substrate Km concentration. IC50 values were calculated as the concentration of inhibitor giving 50% inhibition (IC50) of the uninhibited enzyme activity (100%).

| Compound | IC50 [nM] |
| --- | --- |
| Cc1cc(OCC23CN(C(=O)N4CC[C@H](c5ccccc5)C4)C(CNc4cccc5c(N)nccc45)(C2)C3)cc(=O)n1C [Example 49, (R)-4-((1-(((1-aminoisoquinolin-5-yl)amino)methyl)-2-(3-phenylpyrrolidine-1-carbonyl)-2-azabicyclo[2.1.1]hexan-4-yl)methoxy)-1,6-dimethylpyridin-2(1H)-one] | 10 to 100 |
| COc1cccc(C2CCN(C(=O)N3CC4(COc5cc(C)n(C)c(=O)c5)CC3(CNc3cccc5c(N)nccc35)C4)C2)c1 (stereo not shown) [Example 86, 4-((1-(((1-aminoisoquinolin-5-yl)amino)methyl)-2-(3-(3-methoxyphenyl)pyrrolidine-1-carbonyl)-2-azabicyclo[2.1.1]hexan-4-yl)methoxy)-1,6-dimethylpyridin-2(1H)-one] | 10 to 100 |
| Cn1ccc(OCC23CN(C(=O)C4(Cc5ccccc5)CC4)C(CNc4cccc5c(N)nccc45)(C2)C3)cc1=O [Example 8, 4-((1-(((1-aminoisoquinolin-5-yl)amino)methyl)-2-(1-benzylcyclopropane-1-carbonyl)-2-azabicyclo[2.1.1]hexan-4-yl)methoxy)-1-methylpyridin-2(1H)-one] | 10 to 100 |
| Cc1cc(OCC23CN(C(=O)N4CCCC5(CC5)C4)C(CNc4cccc5c(N)nccc45)(C2)C3)cc(=O)n1C [Example 84, 4-((1-(((1-aminoisoquinolin-5-yl)amino)methyl)-2-(5-azaspiro[2.5]octane-5-carbonyl)-2-azabicyclo[2.1.1]hexan-4-yl)methoxy)-1,6-dimethylpyridin-2(1H)-one] | 10 to 100 |
| C[C@@H](C(=O)N1CC2(COc3ccn(C)c(=O)c3)CC1(CNc1cccc3c(N)nccc13)C2)c1ccccc1 [Example 12, (R)-4-((1-(((1-aminoisoquinolin-5-yl)amino)methyl)-2-(2-phenylpropanoyl)-2-azabicyclo[2.1.1]hexan-4-yl)methoxy)-1-methylpyridin-2(1H)-one] | 10 to 100 |
| Cn1ccc(OCC23CN(C(N)=O)C(CNc4cccc5c(N)nccc45)(C2)C3)cc1=O [Example 63, 1-(((1-Aminoisoquinolin-5-yl)amino)methyl)-4-(((1-methyl-2-oxo-1,2-dihydropyridin-4-yl)oxy)methyl)-2-azabicyclo[2.1.1]hexane-2-carboxamide] | 10 to 100 |
| CC(=O)NC(C)C(=O)N1CC2(COc3cc(C)n(C)c(=O)c3)CC1(CNc1cccc3c(N)nccc13)C2 (stereo not shown) [Example 29, N-(1-(1-(((1-Aminoisoquinolin-5-yl)amino)methyl)-4-(((1,6-dimethyl-2-oxo-1,2-dihydropyridin-4-yl)oxy)methyl)-2-azabicyclo[2.1.1]hexan-2-yl)-1-oxopropan-2-yl)acetamide] | 10 to 100 |
| Cn1ccc(OCC23CN(C(=O)NC4C5CC6CC(C5)CC4C6)C(CNc4cccc5c(N)nccc45)(C2)C3)cc1=O (stereo not shown) [Example 61, N-(adamantan-2-yl)-1-(((1-aminoisoquinolin-5-yl)amino)methyl)-4-(((1-methyl-2-oxo-1,2-dihydropyridin-4-yl)oxy)methyl)-2-azabicyclo[2.1.1]hexane-2-carboxamide] | 10 to 100 |

The next lines start with the values.

| IC50 [nM] | Compound |
| --- | --- |
| 10 to 100 | Cc1cc(OCC23CN(c4ccc(C5CC5)nc4)C(CNc4cccc5c(N)nccc45)(C2)C3)cc(=O)n1C [Example 94, 4-((1-(((1-aminoisoquinolin-5-yl)amino)methyl)-2-(6-cyclopropylpyridin-3-yl)-2-azabicyclo[2.1.1]hexan-4-yl)methoxy)-1,6-dimethylpyridin-2(1H)-one] |
| 10 to 100 | Cc1cc(OCC23CN(C(=O)N(C)[C@H]4CCOC4)C(CNc4cccc5c(N)nccc45)(C2)C3)cc(=O)n1C [Example 41, (S)-1-(((1-aminoisoquinolin-5-yl)amino)methyl)-4-(((1,6-dimethyl-2-oxo-1,2-dihydropyridin-4-yl)oxy)methyl)-N-methyl-N-(tetrahydrofuran-3-yl)-2-azabicyclo[2.1.1]hexane-2-carboxamide] |
| 10 to 100 | COCCOCCNC(=O)N1CC2(COc3ccn(C)c(=O)c3)CC1(CNc1cccc3c(N)nccc13)C2 [Example 73, 1-(((1-aminoisoquinolin-5-yl)amino)methyl)-N-(2-(2-methoxyethoxy)ethyl)-4-(((1-methyl-2-oxo-1,2-dihydropyridin-4-yl)oxy)methyl)-2-azabicyclo[2.1.1]hexane-2-carboxamide] |
| 10 to 100 | Cn1ccc(OCC23CN(C(=O)NC4CCC(S(=O)(=O)C5CCCCC5)CC4)C(CNc4cccc5c(N)nccc45)(C2)C3)cc1=O (stereo not shown) [Example 74, 1-(((1-aminoisoquinolin-5-yl)amino)methyl)-N-(4-(cyclohexylsulfonyl)cyclohexyl)-4-(((1-methyl-2-oxo-1,2-dihydropyridin-4-yl)oxy)methyl)-2-azabicyclo[2.1.1]hexane-2-carboxamide] |
| 10 to 100 | Cc1cc(OCC23CN(C(=O)CC45CCC(CC4)CC5)C(CNc4cccc5c(N)nccc45)(C2)C3)cc(=O)n1C [Example 21, 4-((1-(((1-aminoisoquinolin-5-yl)amino)methyl)-2-(2-(bicyclo[2.2.2]octan-1-yl)acetyl)-2-azabicyclo[2.1.1]hexan-4-yl)methoxy)-1,6-dimethylpyridin-2(1H)-one] |
| 10 to 100 | Cc1cc(OCC23CN(C4=NCCO4)C(CNc4cccc5c(N)nccc45)(C2)C3)cc(=O)n1C [Example 97, 4-((1-(((1-Aminoisoquinolin-5-yl)amino)methyl)-2-(4,5-dihydrooxazol-2-yl)-2-azabicyclo[2.1.1]hexan-4-yl)methoxy)-1,6-dimethylpyridin-2(1H)-one] |
| 10 to 100 | Cc1cc(OCC23CN(C(=O)N4CCC5(C4)CC5(F)F)C(CNc4cccc5c(N)nccc45)(C2)C3)cc(=O)n1C (stereo not shown) [Example 89, 4-((1-(((1-aminoisoquinolin-5-yl)amino)methyl)-2-(1,1-difluoro-5-azaspiro[2.4]heptane-5-carbonyl)-2-azabicyclo[2.1.1]hexan-4-yl)methoxy)-1,6-dimethylpyridin-2(1H)-one] |
| 10 to 100 | Cc1cc(OCC23CN(C(=O)Nc4ccc5c(c4)CCCO5)C(CN(C)c4cccc5c(N)nccc45)(C2)C3)cc(=O)n1C [Example 104, 1-(((1-aminoisoquinolin-5-yl)(methyl)amino)methyl)-N-(chroman-6-yl)-4-(((1,6-dimethyl-2-oxo-1,2-dihydropyridin-4-yl)oxy)methyl)-2-azabicyclo[2.1.1]hexane-2-carboxamide] |
| 10 to 100 | Cn1ccc(OCC23CN(C(=O)NCCC4CCC4)C(CNc4cccc5c(N)nccc45)(C2)C3)cc1=O [Example 81, 1-(((1-aminoisoquinolin-5-yl)amino)methyl)-N-(2-cyclobutylethyl)-4-(((1-methyl-2-oxo-1,2-dihydropyridin-4-yl)oxy)methyl)-2-azabicyclo[2.1.1]hexane-2-carboxamide] |
| 1 to 10 | Cc1cc(OCC23CN(C(=O)N4CC[C@@H](c5ccccc5)C4)C(CNc4cccc5c(N)nccc45)(C2)C3)cc(=O)n1C [Example 45, (S)-4-((1-(((1-aminoisoquinolin-5-yl)amino)methyl)-2-(3-phenylpyrrolidine-1-carbonyl)-2-azabicyclo[2.1.1]hexan-4-yl)methoxy)-1,6-dimethylpyridin-2(1H)-one] |
| 1 to 10 | Cn1ccc(OCC23CN(C(=O)Cc4ccc5c(c4)CCCO5)C(CNc4cccc5c(N)nccc45)(C2)C3)cc1=O [Example 15, 4-((1-(((1-Aminoisoquinolin-5-yl)amino)methyl)-2-(2-(chroman-6-yl)acetyl)-2-azabicyclo[2.1.1]hexan-4-yl)methoxy)-1-methylpyridin-2(1H)-one] |
